According to publication PMC3388080 (PLoS ONE, 2012):

Tests used:
[1] = Plasma and brain exposure at the end of the LMA experiment; assay type: in vivo, rat; conditions: 35 min
Description: Locomotor activity (LMA) was evaluated at F. Hoffmann-La Roche as described previously. Male Wistar rats were placed for 2 weeks in a 12 h light/12 h dark cycle with light onset at 22∶00 (ZT0). […] Spontaneous LMA was recorded for a period of 30 min. At the end of the experiment, the brain and plasma were collected for determination of the drug exposure and brain/plasma concentration ratio.
The plasma and brain exposure of SB-334867 were measured at the end of the LMA experiment.

[2] = system: panel of 79 target receptors; experiment: CEREP selectivity screen, panel of 79 target receptors; assay type: binding; conditions: 10 µM; all targets except A2A, A3, MT3, P2Y, 5HT2C
Description: (§1) SB-334867 was evaluated in a selectivity screen performed at CEREP (Paris, France). The screen consisted of binding assays on a panel of 79 target receptors. The specific binding (SB) of a radioligand to each target receptor was defined as the difference between the total binding and the nonspecific binding determined in the presence of a cold competitor in excess. […] Details on the CEREP screen are available from www.cerep.fr.
Among the 79 receptors tested, 30 were peptide receptors. […] The selectivity profiles of almorexant and EMPA [37] have been reported previously.

TNF-alpha (h) = experiment: CEREP radioligand binding; set-up: species or system human; conditions: % of control specific binding
Description: as §1

in vivo = conditions: male, Sprague-Dawley, rat
Description: This study was performed at F. Hoffmann-La Roche. Sixty-five male Sprague-Dawley rats, housed 5 per cage (light onset: 12∶00), were injected intraperitoneally (ip) with either vehicle (1.25% hydroxypropyl methylcellulose (HPMC), 0.1% docusate sodium) or almorexant (30 mg/kg in 1.25% HPMC, 0.1% docusate sodium) at the mid-dark phase (ZT18; i.e., 6 h after lights-off), and returned to their home cage. Groups (n = 5 per group) of vehicle- or almorexant-treated animals were then sacrificed by decapitation 0.5, 2, 4, 8 or 12 h after the injection. An extra group of non-injected rats (n = 5) was also sampled at ZT18. Plasma was collected and stored at −80°C until assayed. Brains were rapidly dissected, frozen on dry ice, and stored at −80°C. Series of coronal brain sections (14 µm) were cut in a cryostat through the posterior hypothalamus (tuberomammillary nucleus level: 3.8 to 4.2 mm posterior to bregma) and the brain stem (dorsal raphe nucleus level: 7.3 to 8 mm posterior to bregma; locus coeruleus level: −9.3 to −10 mm posterior to bregma), thaw-mounted (6 sections per slide) and stored at −20°C. After sectioning, the remaining pieces of brain were kept at −80°C for later determination of almorexant brain concentration. The brain and plasma concentrations of almorexant were determined by quantitative liquid chromatography/mass spectrometry/mass spectrometry (LC/MS/MS).

hHCRTR1 = target: hHCRTR1; set-up: method as in PMID 9821961; conditions: 37°C; cited from earlier work
HCRTR2 = target: T1, HCRTR2 (Rattus norvegicus, UniProt P56719); experiment: HCRTR2 occupancy, [^3H]EMPA autoradiography of brain sections; assay type: in vivo; conditions: 30 mg/kg ip; for receptor occupancy at 30 mg/kg: rat, ip, 12 h
T1 construct: from tissue; host or cells: coronal brain sections of male Sprague-Dawley rats (TMN, DRN, CC, CA3, RSC, Pn)
T1 sequence (P56719 1-460): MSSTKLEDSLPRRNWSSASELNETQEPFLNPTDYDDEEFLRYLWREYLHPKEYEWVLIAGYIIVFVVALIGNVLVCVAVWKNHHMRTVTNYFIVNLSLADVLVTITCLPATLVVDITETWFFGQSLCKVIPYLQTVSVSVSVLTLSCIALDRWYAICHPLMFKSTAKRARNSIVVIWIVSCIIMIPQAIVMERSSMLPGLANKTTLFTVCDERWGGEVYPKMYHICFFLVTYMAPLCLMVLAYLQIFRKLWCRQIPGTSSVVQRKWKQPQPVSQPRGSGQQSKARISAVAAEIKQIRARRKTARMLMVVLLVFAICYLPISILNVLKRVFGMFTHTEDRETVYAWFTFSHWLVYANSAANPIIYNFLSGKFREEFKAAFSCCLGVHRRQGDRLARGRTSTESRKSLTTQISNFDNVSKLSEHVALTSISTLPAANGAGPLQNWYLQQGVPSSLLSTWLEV

hHCRTR2 = target: hHCRTR2; set-up: method as in PMID 9821961; conditions: 37°C; cited from earlier work

| Compound | brain level ([1]; 3 mg/kg ip) | plasma level ([1]; 3 mg/kg ip) | brain level ([1]; 10 mg/kg ip) | plasma level ([1]; 10 mg/kg ip) | brain level ([1]; 30 mg/kg ip) | plasma level ([1]; 30 mg/kg ip) | activity at all other targets tested [2] | % Control (10 µM) Mean SB (TNF-alpha (h)) | time at which half-maximal concentrations were achieved (in vivo) | Kp at 0.5 h (in vivo; ip, 30 mg/kg) | Ki (hHCRTR1) | HCRTR2 RO (HCRTR2; all 6 structures, within 30 min, maximal at 2 h and 4 h) | receptor occupancy at 30 mg/kg (HCRTR2; CA3) | receptor occupancy at 30 mg/kg (HCRTR2; CC) | receptor occupancy at 30 mg/kg (HCRTR2; DRN) | receptor occupancy at 30 mg/kg (HCRTR2; Pn) | receptor occupancy at 30 mg/kg (HCRTR2; RSC) | receptor occupancy at 30 mg/kg (HCRTR2; TMN) | Ki (hHCRTR2) |
| --- | --- | --- | --- | --- | --- | --- | --- | --- | --- | --- | --- | --- | --- | --- | --- | --- | --- | --- | --- |
| Cc1nc2ccc(NC(=O)Nc3ccnc4cccnc34)cc2o1.Cl [SB-334867, 1-(2-methylbenzoxazol-6-yl)-3-[1], [5]naphthyridin-4-yl-urea hydrochloride] | 48 ng/mL | 220 ng/mL | 171 ng/mL | 718 ng/mL | 142 ng/mL | 738 ng/mL | < 40% | 96.8% | – | – | – | – | – | – | – | – | – | – | – |
| CNC(=O)[C@@H](c1ccccc1)N1CCc2cc(OC)c(OC)cc2[C@@H]1CCc1ccc(C(F)(F)F)cc1 [almorexant, (2R)-2-[(1S)-6,7-Dimethoxy-1-[2-(4-trifluoromethyl-phenyl)-ethyl]-3,4-dihydro-1H-isoquinolin-2-yl]-N-methyl-2-phenyl-acetamide] | – | – | – | – | – | – | – | – | 4 and 6 | 0.28 | 4.7 nM | ~100% | 58.4 ± 11.5% | 66.1 ± 11.6% | 57.7 ± 10.5% | 67.2 ± 13.9% | 64.6 ± 10.7% | 49.2 ± 13.2% | 0.9 nM |
